# Source: US20230085307A1, “PYRIDAZINONE COMPOUND AND HERBICIDE” (NISSAN CHEMICAL CORPORATION, priority 2019, published 2023)
# Columns and labels:
# [1] = tested on: barnyard grass; test: Test Example 3: herbicidal effect by foliage application, Wagner pot (Table 18, symbol H); format: in vivo, barnyard grass (Echinochloa crus-galli); details: for herbicidal effect on H: barnyard grass: amount of applied herbicide 320 g/ha
# Method in brief: (§1)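 Plants were sown in alluvial soil held under 0.1–0.5 cm standing water and grown 14 days in a greenhouse at 25–30 °C. An emulsifiable formulation, water-diluted to the set dose, was then sprayed onto the foliage, and effects were scored three weeks later using previously defined criteria.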
# [2] = tested on: rice flat sedge; test: Test Example 3: herbicidal effect by foliage application, Wagner pot (Table 18, symbol E); format: in vivo, rice flat sedge (Cyperus iria); details: for herbicidal effect on E: rice flat sedge: amount of applied herbicide 320 g/ha
# Method in brief: as §1
# [3] = tested on: Japanese bulrush; test: Test Example 1: herbicidal activity, application before weed generation under submerged conditions (Table 16, symbol B); format: in vivo, Japanese bulrush (Schoenoplectus juncoides); details: for Herbicidal effect on B: Japanese bulrush (grade 0-5): 320 g/ha applied herbicide
# Description: (§2) [Test Example 1] Herbicidal Activity Test by Application before Weed Generation under Submerged Conditions After alluvial soil was placed into 1/10000 are of Wagner pot, water was poured and mixed to form a submerged condition having a water depth of 4 cm. Seeds of late watergrass, Japanese bulrush, and oval-leafed pondweed were sowed in a mixed manner in the aforementioned pot, and then 2.5 leaf stage rice plant seedlings were transplanted thereto. On the day of sowing seeds, the emulsion agent of the compound of the present invention prepared according to Formulation Example 2 was diluted with water so as to achieve a predetermined herbicide amount, and the diluted emulsion agent was applied to the surface of the water. The pot was placed in a greenhouse at 25° C. to 30° C. for growth of the plants. Three weeks after the herbicide application, the effect of the herbicide on each plant was evaluated according to the following criteria. Evaluation Criteria 5: Herbicidal rate of 90% or more (almost completely withered) 4: Herbicidal rate of 70% or more and less than 90% 3: Herbicidal rate of 40% or more and less than 70% 2: Herbicidal rate of 20% or more and less than 40% 1: Herbicidal rate of 5% or more and less than 20% 0: Herbicidal rate of 5% or less (almost no effect)
# [4] = tested on: Chinese sprangletop; test: Test Example 3: herbicidal effect by foliage application, Wagner pot (Table 18, symbol D); format: in vivo, chinese sprangletop (Leptochloa chinensis); details: for herbicidal effect on D: Chinese sprangletop: amount of applied herbicide 320 g/ha
# Method in brief: as §1
# [5] = tested on: oval-leafed pondweed; test: Test Example 1: herbicidal activity, application before weed generation under submerged conditions (Table 16, symbol C); format: in vivo, oval-leafed pondweed (Monochoria vaginalis); details: 320 g/ha applied herbicide
# Description: as §2
# [6] = tested on: late watergrass; test: Test Example 1: herbicidal activity, application before weed generation under submerged conditions (Table 16, symbol A); format: in vivo, late watergrass (Echinochloa oryzicola); details: for Herbicidal effect on A: late watergrass (grade 0-5): 320 g/ha applied herbicide
# Description: as §2
# [7] = tested on: redroot pigweed; test: Test Example 5: herbicidal effect by foliage application, plastic box (Table 20, symbol N); format: in vivo, redroot pigweed (Amaranthus retroflexus); details: foliage application, 320 g/ha, three weeks after application
# Method in brief: (§3)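 Post-emergence foliar test in sterilized diluvial soil. Compound applied as water-diluted emulsion at a predetermined rate to 14-day-old plants; evaluation at three weeks.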
# [8] = tested on: blackgrass; test: Test Example 5: herbicidal effect by foliage application, plastic box (Table 20, symbol J); format: in vivo, blackgrass (Alopecurus myosuroides); details: foliage application, 320 g/ha, three weeks after application
# Method in brief: as §3
# [9] = tested on: green foxtail; test: Test Example 4: herbicidal effect by soil treatment (Table 19, symbol G); format: in vivo, green foxtail (Setaria viridis); details: amount of applied herbicide 320 g/ha
# Method in brief: (§4)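 Scoring uses the grading scale of an earlier test, three weeks post-application. Treatment consists of spraying a diluted emulsion formulation across the surface of sterilized diluvial soil in which seeds are buried near 1.5 cm deep; boxes are kept in a greenhouse between 25° C. and 30° C.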
# [10] = tested on: southern crabgrass; test: Test Example 4: herbicidal effect by soil treatment (Table 19, symbol F); format: in vivo, southern crabgrass (Digitaria ciliaris); details: amount of applied herbicide 320 g/ha
# Method in brief: as §4
# [11] = tested on: lambsquarters; test: Test Example 4: herbicidal effect by soil treatment (Table 19, symbol O); format: in vivo, lambsquarters (Chenopodium album); details: amount of applied herbicide 320 g/ha
# Method in brief: as §4
# [12] = tested on: windgrass; test: Test Example 5: herbicidal effect by foliage application, plastic box (Table 20, symbol L); format: in vivo, windgrass (Apera spica-venti); details: foliage application, 320 g/ha, three weeks after application
# Method in brief: as §3
# [13] = tested on: chickweed; test: Test Example 4: herbicidal effect by soil treatment (Table 19, symbol P); format: in vivo, common chickweed (Stellaria media); details: amount of applied herbicide 320 g/ha
# Method in brief: as §4
# [14] = tested on: wild oat; test: Test Example 4: herbicidal effect by soil treatment (Table 19, symbol I); format: in vivo, wild oat (Avena fatua); details: amount of applied herbicide 320 g/ha
# Method in brief: as §4
# [15] = tested on: Italian ryegrass; test: Test Example 4: herbicidal effect by soil treatment (Table 19, symbol K); format: in vivo, Italian ryegrass (Lolium multiflorum); details: amount of applied herbicide 320 g/ha
# Method in brief: as §4
# [16] = tested on: wild oat; test: Test Example 5: herbicidal effect by foliage application, plastic box (Table 20, symbol I); format: in vivo, wild oat (Avena fatua); details: foliage application, 320 g/ha, three weeks after application
# Method in brief: as §3
# [17] = tested on: southern crabgrass; test: Test Example 5: herbicidal effect by foliage application, plastic box (Table 20, symbol F); format: in vivo, southern crabgrass (Digitaria ciliaris); details: foliage application, 320 g/ha, three weeks after application
# Method in brief: as §3
# [18] = tested on: windgrass; test: Test Example 4: herbicidal effect by soil treatment (Table 19, symbol L); format: in vivo, windgrass (Apera spica-venti); details: amount of applied herbicide 320 g/ha
# Method in brief: as §4
# [19] = tested on: lambsquarters; test: Test Example 5: herbicidal effect by foliage application, plastic box (Table 20, symbol O); format: in vivo, lambsquarters (Chenopodium album); details: foliage application, 320 g/ha, three weeks after application
# Method in brief: as §3
# [20] = tested on: green foxtail; test: Test Example 5: herbicidal effect by foliage application, plastic box (Table 20, symbol G); format: in vivo, green foxtail (Setaria viridis); details: foliage application, 320 g/ha, three weeks after application
# Method in brief: as §3
# [21] = tested on: Italian ryegrass; test: Test Example 5: herbicidal effect by foliage application, plastic box (Table 20, symbol K); format: in vivo, Italian ryegrass (Lolium multiflorum); details: foliage application, 320 g/ha, three weeks after application
# Method in brief: as §3
# [22] = tested on: velvetleaf; test: Test Example 5: herbicidal effect by foliage application, plastic box (Table 20, symbol M); format: in vivo, velvetleaf (Abutilon theophrasti); details: foliage application, 320 g/ha, three weeks after application
# Method in brief: as §3
# [23] = tested on: barnyard grass; test: Test Example 5: herbicidal effect by foliage application, plastic box (Table 20, symbol H); format: in vivo, barnyard grass (Echinochloa crus-galli); details: foliage application, 320 g/ha, three weeks after application
# Method in brief: as §3
# [24] = tested on: persian speedwell; test: Test Example 5: herbicidal effect by foliage application, plastic box (Table 20, symbol R); format: in vivo, Persian speedwell (Veronica persica); details: foliage application, 320 g/ha, three weeks after application
# Method in brief: as §3
# [25] = tested on: blackgrass; test: Test Example 4: herbicidal effect by soil treatment (Table 19, symbol J); format: in vivo, blackgrass (Alopecurus myosuroides); details: amount of applied herbicide 320 g/ha
# Method in brief: as §4
# [26] = tested on: barnyard grass; test: Test Example 4: herbicidal effect by soil treatment (Table 19, symbol H); format: in vivo, barnyard grass (Echinochloa crus-galli); details: amount of applied herbicide 320 g/ha
# Method in brief: as §4
# [27] = tested on: redroot pigweed; test: Test Example 4: herbicidal effect by soil treatment (Table 19, symbol N); format: in vivo, redroot pigweed (Amaranthus retroflexus); details: amount of applied herbicide 320 g/ha
# Method in brief: as §4
# [28] = tested on: velvetleaf; test: Test Example 4: herbicidal effect by soil treatment (Table 19, symbol M); format: in vivo, velvetleaf (Abutilon theophrasti); details: amount of applied herbicide 320 g/ha
# Method in brief: as §4
# [29] = tested on: chickweed; test: Test Example 5: herbicidal effect by foliage application, plastic box (Table 20, symbol P); format: in vivo, common chickweed (Stellaria media); details: foliage application, 320 g/ha, three weeks after application
# Method in brief: as §3
# [30] = tested on: persian speedwell; test: Test Example 4: herbicidal effect by soil treatment (Table 19, symbol R); format: in vivo, Persian speedwell (Veronica persica); details: amount of applied herbicide 320 g/ha
# Method in brief: as §4
# [31] = amount of applied herbicide 320 g/ha
compound,measurement,setting,value
CCS(=O)(=O)Cc1ccc(-c2sc3ccc(F)cc3c2-c2c(O)c(C)nn(C)c2=O)cc1 [2-335],herbicidal effect on H: barnyard grass,[1],5 (Herbicidal rate of 90% or more (almost completely withered))
same,herbicidal effect on E: rice flat sedge,[2],5 (Herbicidal rate of 90% or more (almost completely withered))
same,Herbicidal effect on B: Japanese bulrush (grade 0-5),[3],0 (Herbicidal rate of 5% or less (almost no effect))
same,herbicidal effect on D: Chinese sprangletop,[4],3 (Herbicidal rate of 40% or more and less than 70%)
same,Herbicidal effect on C: oval-leafed pondweed (grade 0-5),[5],0 (Herbicidal rate of 5% or less (almost no effect))
same,Herbicidal effect on A: late watergrass (grade 0-5),[6],3 (Herbicidal rate of 40% or more and less than 70%)
CC[S+]([O-])Cc1ccc(-c2sc3ccc(F)cc3c2-c2c(O)c(C)nn(C)c2=O)cc1 (centres unmarked) [2-333],herbicidal effect on H: barnyard grass,[1],5 (Herbicidal rate of 90% or more (almost completely withered))
same,herbicidal effect on E: rice flat sedge,[2],5 (Herbicidal rate of 90% or more (almost completely withered))
same,Herbicidal effect on B: Japanese bulrush (grade 0-5),[3],0 (Herbicidal rate of 5% or less (almost no effect))
same,herbicidal effect on D: Chinese sprangletop,[4],2 (Herbicidal rate of 20% or more and less than 40%)
same,Herbicidal effect on C: oval-leafed pondweed (grade 0-5),[5],0 (Herbicidal rate of 5% or less (almost no effect))
same,Herbicidal effect on A: late watergrass (grade 0-5),[6],2 (Herbicidal rate of 20% or more and less than 40%)
COc1ccccc1-c1sc2cc(OS(=O)(=O)N(C)C)ccc2c1-c1c(O)c(C)nn(C)c1=O [3-134],"N: redroot pigweed, herbicidal effect grade",[7],4 (Herbicidal rate of 70% or more and less than 90%)
same,"J: blackgrass, herbicidal effect grade",[8],4 (Herbicidal rate of 70% or more and less than 90%)
same,herbicidal effect on barnyard grass (H),[1]; 320 g/ha,3 (Herbicidal rate of 40% or more and less than 70%)
same,"Herbicidal effect by soil treatment, G: green foxtail",[9],0 (Herbicidal rate of 5% or less (almost no effect))
same,"Herbicidal effect by soil treatment, F: southern crabgrass",[10],0 (Herbicidal rate of 5% or less (almost no effect))
same,"Herbicidal effect by soil treatment, O: lambsquarters",[11],3 (Herbicidal rate of 40% or more and less than 70%)
same,"L: windgrass, herbicidal effect grade",[12],5 (Herbicidal rate of 90% or more (almost completely withered))
same,herbicidal effect on rice flat sedge (E),[2]; 320 g/ha,3 (Herbicidal rate of 40% or more and less than 70%)
same,"Herbicidal effect, B: Japanese bulrush",[3]; [31],4 (Herbicidal rate of 70% or more and less than 90%)
same,"Herbicidal effect by soil treatment, P: chickweed",[13],1 (Herbicidal rate of 5% or more and less than 20%)
same,herbicidal effect on Chinese sprangletop (D),[4]; 320 g/ha,4 (Herbicidal rate of 70% or more and less than 90%)
same,"Herbicidal effect by soil treatment, I: wild oat",[14],0 (Herbicidal rate of 5% or less (almost no effect))
same,"Herbicidal effect by soil treatment, K: Italian ryegrass",[15],4 (Herbicidal rate of 70% or more and less than 90%)
same,"I: wild oat, herbicidal effect grade",[16],2 (Herbicidal rate of 20% or more and less than 40%)
same,"F: southern crabgrass, herbicidal effect grade",[17],4 (Herbicidal rate of 70% or more and less than 90%)
same,"Herbicidal effect by soil treatment, L: windgrass",[18],5 (Herbicidal rate of 90% or more (almost completely withered))
same,"O: lambsquarters, herbicidal effect grade",[19],3 (Herbicidal rate of 40% or more and less than 70%)
same,"Herbicidal effect, A: late watergrass",[6]; [31],3 (Herbicidal rate of 40% or more and less than 70%)
same,"G: green foxtail, herbicidal effect grade",[20],3 (Herbicidal rate of 40% or more and less than 70%)
same,"K: Italian ryegrass, herbicidal effect grade",[21],4 (Herbicidal rate of 70% or more and less than 90%)
same,"M: velvetleaf, herbicidal effect grade",[22],3 (Herbicidal rate of 40% or more and less than 70%)
same,"H: barnyard grass, herbicidal effect grade",[23],0 (Herbicidal rate of 5% or less (almost no effect))
same,"R: persian speedwell, herbicidal effect grade",[24],5 (Herbicidal rate of 90% or more (almost completely withered))
same,"Herbicidal effect by soil treatment, J: blackgrass",[25],4 (Herbicidal rate of 70% or more and less than 90%)
same,"Herbicidal effect by soil treatment, H: barnyard grass",[26],0 (Herbicidal rate of 5% or less (almost no effect))
same,"Herbicidal effect by soil treatment, N: redroot pigweed",[27],5 (Herbicidal rate of 90% or more (almost completely withered))
same,"Herbicidal effect by soil treatment, M: velvetleaf",[28],1 (Herbicidal rate of 5% or more and less than 20%)
same,"P: chickweed, herbicidal effect grade",[29],5 (Herbicidal rate of 90% or more (almost completely withered))
same,"Herbicidal effect by soil treatment, R: persian speedwell",[30],3 (Herbicidal rate of 40% or more and less than 70%)
